The values below come from ChEMBL document CHEMBL3808363, “2-(Thienothiazolylimino)-1,3-thiazolidin-4-ones inhibit cell division cycle 25 A phosphatase” (Bioorg Med Chem, 2016).

By inhibition is commonly meant how much of the control response was suppressed. One may read the IC50 as the concentration that gives 50% inhibition.

Assay [1] concerns the target T1, M-phase inducer phosphatase 1 (Homo sapiens) (UniProt P30304).
T1 sequence (whole entry): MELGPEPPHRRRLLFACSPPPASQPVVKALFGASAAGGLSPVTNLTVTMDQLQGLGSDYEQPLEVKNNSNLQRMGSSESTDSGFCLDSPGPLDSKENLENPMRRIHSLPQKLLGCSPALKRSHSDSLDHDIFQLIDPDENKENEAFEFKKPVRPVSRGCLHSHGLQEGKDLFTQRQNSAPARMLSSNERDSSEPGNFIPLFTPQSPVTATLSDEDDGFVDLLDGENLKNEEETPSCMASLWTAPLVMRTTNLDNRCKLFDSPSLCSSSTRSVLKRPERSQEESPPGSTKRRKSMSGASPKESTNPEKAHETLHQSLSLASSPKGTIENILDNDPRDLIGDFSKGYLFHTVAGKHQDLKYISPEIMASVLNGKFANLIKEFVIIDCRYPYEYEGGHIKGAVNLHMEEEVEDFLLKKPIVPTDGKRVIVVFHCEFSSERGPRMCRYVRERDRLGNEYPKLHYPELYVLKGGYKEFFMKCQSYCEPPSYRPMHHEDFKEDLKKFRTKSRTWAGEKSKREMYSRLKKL
Put plainly: Inhibition of human recombinant full length GST-tagged CDC25A transfected in Escherichia coli BL21-DE3 using 3-O-methylfluorescein phosphate as substrate at 10 uM incubated for 20 mins followed by substrate addition measured every 10 mins for 2 hrs by fluorimetric assay.

Assay [2] concerns the target T2, M-phase inducer phosphatase 2 (Homo sapiens) (UniProt P30305).
T2 sequence (whole entry): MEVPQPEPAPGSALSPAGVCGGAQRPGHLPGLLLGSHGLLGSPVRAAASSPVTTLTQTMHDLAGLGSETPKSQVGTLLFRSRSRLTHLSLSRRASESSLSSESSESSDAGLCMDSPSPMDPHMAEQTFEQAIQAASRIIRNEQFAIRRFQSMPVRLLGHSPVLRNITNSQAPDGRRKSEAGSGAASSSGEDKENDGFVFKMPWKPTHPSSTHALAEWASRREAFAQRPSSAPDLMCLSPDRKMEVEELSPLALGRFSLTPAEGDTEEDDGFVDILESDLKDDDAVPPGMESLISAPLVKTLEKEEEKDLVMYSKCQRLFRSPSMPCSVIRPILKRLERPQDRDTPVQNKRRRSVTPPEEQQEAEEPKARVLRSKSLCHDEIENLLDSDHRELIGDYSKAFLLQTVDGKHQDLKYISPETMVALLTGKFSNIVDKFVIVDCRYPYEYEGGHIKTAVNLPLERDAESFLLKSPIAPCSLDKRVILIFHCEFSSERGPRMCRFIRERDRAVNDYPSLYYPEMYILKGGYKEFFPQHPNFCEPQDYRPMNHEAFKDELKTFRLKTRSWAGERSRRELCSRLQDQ
Put plainly: Inhibition of human recombinant GST-tagged CDC25B catalytic domain transfected in Escherichia coli BL21-DE3 using 3-O-methylfluorescein phosphate as substrate at 10 uM incubated for 20 mins followed by substrate addition measured every 10 mins for 2 hrs by fluorimetric assay.

Assay [3] concerns the target T3, M-phase inducer phosphatase 3 (Homo sapiens) (UniProt P30307).
T3 sequence (whole entry): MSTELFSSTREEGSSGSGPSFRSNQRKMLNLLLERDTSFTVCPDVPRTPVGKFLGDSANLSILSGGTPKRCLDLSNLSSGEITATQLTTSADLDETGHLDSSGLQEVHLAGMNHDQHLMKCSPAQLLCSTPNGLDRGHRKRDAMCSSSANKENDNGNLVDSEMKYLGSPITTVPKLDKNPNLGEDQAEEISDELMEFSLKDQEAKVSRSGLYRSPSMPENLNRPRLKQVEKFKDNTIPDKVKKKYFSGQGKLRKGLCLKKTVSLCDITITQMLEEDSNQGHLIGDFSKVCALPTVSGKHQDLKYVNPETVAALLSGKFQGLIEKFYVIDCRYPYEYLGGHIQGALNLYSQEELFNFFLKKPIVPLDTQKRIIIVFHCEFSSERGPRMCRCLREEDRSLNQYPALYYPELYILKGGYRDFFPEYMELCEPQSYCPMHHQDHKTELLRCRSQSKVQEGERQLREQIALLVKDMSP
The assay can be described thus: Inhibition of human recombinant full length GST-tagged CDC25C transfected in Escherichia coli BL21-DE3 using 3-O-methylfluorescein phosphate as substrate at 10 uM incubated for 20 mins followed by substrate addition measured every 10 mins for 2 hrs by fluorimetric assay.

The target of assay [4] is T4, M-phase inducer phosphatase 1 (Homo sapiens, UniProt P30304).
T4 sequence (P30304 whole entry): T1 sequence (whole entry)
Put plainly: Inhibition of human recombinant full length GST-tagged CDC25A transfected in Escherichia coli BL21-DE3 using 3-O-methylfluorescein phosphate as substrate incubated for 20 mins followed by substrate addition measured every 10 mins for 2 hrs by fluorimetric assay.

Assay [5] addresses T1, M-phase inducer phosphatase 1 (Homo sapiens). Put plainly: Reversible binding affinity to human recombinant full length GST-tagged CDC25A transfected in Escherichia coli BL21-DE3 after 1 hr by MALDI-TOF mass spectrometry.
Assay [6] relates to HT-29. The assay can be described thus: Cytotoxicity against human HT-29 cells assessed as inhibition of cell growth after 72 hrs by MTT assay. The assay is classed as functional, cell-based. The following applies: HT-29, 72 h. Background: Tetrazolium dyes change colour on reduction, which living cells bring about.
Assay [7] deals with MCF7. The assay can be described thus: Cytotoxicity against human MCF7 cells assessed as inhibition of cell growth after 72 hrs by MTT assay. The following applies: MCF7, 72 h. The assay is classed as functional, cell-based.
Assay [8] has as its system MDA-MB-231. The assay can be described thus: Cytotoxicity against human MDA-MB-231 cells assessed as inhibition of cell growth after 72 hrs by MTT assay. The settings on record: MDA-MB-231, 72 h. The assay is classed as functional, cell-based.
The subject of assay [9] is MCF7. The assay can be described thus: Cytotoxicity against human MCF7 cells assessed as cell growth at IC50 concentration after 72 hrs by trypan blue assay. Type of assay: functional.
The subject of assay [10] is MDA-MB-231. Put plainly: Cytotoxicity against human MDA-MB-231 cells assessed as cell growth at IC50 concentration after 72 hrs by trypan blue assay. Type of assay: functional.
Assay [11] is described as follows: Cytotoxicity against human HCT116 cells assessed as inhibition of cell growth after 72 hrs by MTT assay. Type of assay: functional, cell-based. The settings on record: HCT-116, 72 h.
Assay [12] relates to MCF7. Put plainly: Cytotoxicity against human MCF7 cells assessed as inhibition of cell growth at IC50 concentration after 72 hrs by trypan blue assay. Type of assay: functional.
Assay [13] concerns MDA-MB-231. The assay can be described thus: Cytotoxicity against human MDA-MB-231 cells assessed as inhibition of cell growth at IC50 concentration after 72 hrs by trypan blue assay. The assay is classed as functional.
The target of assay [14] is T1, M-phase inducer phosphatase 1 (Homo sapiens). Put plainly: Inhibition of human recombinant full length GST-tagged CDC25A transfected in Escherichia coli BL21-DE3 using 3-O-methylfluorescein phosphate as substrate at 10 uM incubated for 20 mins followed by substrate addition measured every 10 mins for 2 hrs by fluorimetric assay in presence of 0.1% BSA.
The target is the same in assay [15]. Put plainly: Inhibition of human recombinant full length GST-tagged CDC25A transfected in Escherichia coli BL21-DE3 using 3-O-methylfluorescein phosphate as substrate at 10 uM incubated for 20 mins followed by substrate addition measured every 10 mins for 2 hrs by fluorimetric assay in presence of 0.01% triton X 100.
Assay [16] shares this target. Put plainly: Inhibition of human recombinant full length GST-tagged CDC25A transfected in Escherichia coli BL21-DE3 using 3-O-methylfluorescein phosphate as substrate at 10 uM incubated for 20 mins followed by substrate addition measured every 10 mins for 2 hrs by fluorimetric assay in presence of 0.025% triton X 100.
The target is the same in assay [17]. Put plainly: Inhibition of human recombinant full length GST-tagged CDC25A transfected in Escherichia coli BL21-DE3 using 3-O-methylfluorescein phosphate as substrate at 10 uM incubated for 20 mins followed by substrate addition measured every 10 mins for 2 hrs by fluorimetric assay in presence of 0.05% triton X 100.
For assay [18] the target is unchanged. Put plainly: Inhibition of human recombinant full length GST-tagged CDC25A transfected in Escherichia coli BL21-DE3 using 3-O-methylfluorescein phosphate as substrate at 10 uM incubated for 20 mins followed by substrate addition measured every 10 mins for 2 hrs by fluorimetric assay in presence of 0.1% triton X 100.
The target is the same in assay [19]. Put plainly: Inhibition of human recombinant full length GST-tagged CDC25A transfected in Escherichia coli BL21-DE3 using 3-O-methylfluorescein phosphate as substrate at 10 uM incubated for 20 mins followed by substrate addition measured every 10 mins for 2 hrs by fluorimetric assay in presence of 0.5% triton X 100.

Calls of active or inactive are those of the source. The rule behind the calls is not given here.

On to `O=C1N/C(=N/c2nc3cc(-c4ccc(Cl)cc4)sc3s2)S/C1=C/c1ccc2ccccc2c1`, for which the inhibition in assay [1] stood at 67%; in [2] it was 27.3%; in assay [3], 22.6%. For the same compound, the IC50 is 7.3 µM in assay [4], over 50 µM in assay [6], 15.2 µM in assay [7] and over 50 µM in assay [8]. Also, the result in [5] was Active. The Activity in [9] and in assay [10] was over 80% in each case.

As to `O=C1N/C(=N/c2nc3cc(-c4ccc(Br)cc4)sc3s2)S/C1=C/c1ccc(Cl)cc1`, the figures for the inhibition in assay [1], in assay [2] and in assay [3] were 28.4%, 3.8% and 6.1%, respectively. The IC50 in assay [6] turned out to be 15.2 µM; in assay [11], 15.5 µM; in [7], 11 µM; in assay [8] it was 22.3 µM. Moreover, the “growth inhibition (GI)” value in assay [12] came to 25%; in assay [13], 35%.

Regarding `O=C1C=CC(=O)c2ccccc21`, the inhibition in assay [1] was determined as 79.7%; in assay [2], 71.2%; in assay [3], 99.2%; in assay [14], 20.3%; in [15], 20.6%; in [16], 18.6%. Moreover, the inhibition is 26.5% in assay [17], 24.7% in assay [18] and 26.3% in [19].

Take `O=C1CS/C(=N\c2nc3cc(-c4ccc(Cl)cc4)[se]c3s2)N1`: the results for the inhibition in assay [1], in assay [2] and in assay [3] were 4.2%, 17.4% and 15.6%, respectively. For the same compound, the IC50 in assay [6] was 42.4 µM; in assay [11], 43.8 µM; in [7], 21.8 µM; in assay [8], 35.6 µM.

With `O=C1N/C(=N/c2nc3cc(-c4ccc(Cl)cc4)sc3s2)S/C1=C/c1ccc(Cl)cc1`, the IC50 in [6] and in [7] was over 50 µM throughout.

On to `Cc1ccc(/C=C2/S/C(=N\c3nc4cc(-c5ccc(Cl)cc5)sc4s3)NC2=O)cc1`, for which the inhibition came out at 68.1% in assay [1], 24.2% in assay [2] and 23.3% in assay [3]. The IC50 in assay [4] was found to be 8.3 µM; in assay [6], 45.5 µM; in assay [7], 3.3 µM; in assay [8], 22.8 µM. Moreover, the outcome in [5] was Active. Also, in assay [12], the “growth inhibition (GI)” value was “inactive”. Besides, in [13], the “growth inhibition (GI)” value turned out to be 70%.

With `O=C1CS/C(=N\c2nc3cc(-c4ccc(Cl)cc4)sc3s2)N1`, the inhibition was 6.8% in assay [1], 21.6% in assay [2] and 16.4% in assay [3]. For the same compound, the IC50 in assay [6] was 13.6 µM; in [11], 14.5 µM; in assay [7], 12.4 µM; in assay [8], 18.8 µM.

On to `CN(C)c1ccc(/C=C2/S/C(=N\c3nc4cc(-c5ccc(Cl)cc5)sc4s3)NC2=O)cc1`, for which the IC50 in assay [6] and in [7] was over 50 µM throughout.

Take `O=C1N/C(=N/c2nc3cc(-c4ccc(Cl)cc4)sc3s2)S/C1=C/c1ccc(F)cc1`: the inhibition is 65.6% in assay [1], 35.4% in assay [2] and 15.5% in [3]. For the same compound, the IC50 in assay [4] was 7.8 µM; in [6] it was over 50 µM; in assay [7] it was 21 µM; in assay [8] it was 24.7 µM. Also, in assay [5], the outcome was Active. Also, the “growth inhibition (GI)” value in [12] amounted to 60%; in assay [13] it was 30%.
